# Measurements taken from PubChem BioAssay (NCI).
# “And” between values parts separate entries of the source, which are not always exact repeats. Equal values may be shown once.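 Cells were grown in 96-well plates and exposed to each compound for 48 hours at five concentrations; endpoints were interpolated linearly between bracketing concentrations, or set to the highest concentration if not reached. GI50 is the concentration that inhibits growth by half. TGI denotes the concentration required for complete inhibition of growth.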
# Tests used:
# Assay in all cases: inhibition of tumour cell growth, NCI panel, 48 h
# [1] = tested on: U251 CNS
# [2] = tested on: IGROV1 ovarian
# [3] = tested on: A498 renal
# [4] = tested on: UACC-62 melanoma
# [5] = tested on: SK-MEL-2 melanoma
# [6] = tested on: SN12C renal
# [7] = tested on: SR leukemia
# [8] = tested on: RPMI-8226 leukemia
# [9] = tested on: HOP-92 NSCLC
# [10] = tested on: M14 melanoma
Compound,GI50 [1],TGI [1],GI50 [2],TGI [2],GI50 [3],TGI [3],GI50 [4],TGI [4],GI50 [5],TGI [5],GI50 [6],TGI [6],GI50 [7],TGI [7],GI50 [8],TGI [8],GI50 [9],TGI [9],GI50 [10],TGI [10]
Cc1cc(-c2ncc(CC(=O)Nc3ccc(-c4cnccn4)cn3)cc2C)ccn1,24.6 µM,> 100 µM,30.5 µM,> 100 µM,2.8 µM,65.5 µM,22.1 µM,> 100 µM,27.8 µM,> 100 µM,91.7 µM,> 100 µM,18.4 µM,> 100 µM,19.2 µM,> 100 µM,12 µM,81.8 µM,,
COc1cc(C2CC(c3ccc(C)cc3)=NN2C=O)ccc1Oc1ccnc2cc(Cl)ccc12 (configuration not stated),6.5 µM,21.4 µM,24.8 µM,> 50 µM,5.73 µM,23.1 µM,11.2 µM,> 50 µM,7.39 µM,18.3 µM,> 50 µM,> 50 µM,> 50 µM,> 50 µM,> 50 µM,> 50 µM,9.1 µM,> 50 µM,14.2 µM,> 50 µM
CNc1ccc2nc3ccc(=[N+](C)C)cc-3sc2c1,0.412 µM and 0.267 µM,5.6 µM and 1.68 µM,2.36 µM and 1.28 µM,10.5 µM and 4.06 µM,2.98 µM and 6.49 µM,25.4 µM and 28.2 µM,0.799 µM and 1.1 µM,2.86 µM and 3.6 µM,1.12 µM and 1.07 µM,3.81 µM and 5.25 µM,1.08 µM and 0.466 µM,3.31 µM and 4.16 µM,0.635 µM and 2.22 µM,12.1 µM and > 100 µM,0.287 µM and 0.8 µM,14.6 µM and 28 µM,,29.8 µM and 5.06 µM,1.2 µM and 0.347 µM,12 µM and 1.5 µM
O=C1NCc2ccc3c(-c4cccc(Cl)c4)c[nH]c3c21,0.247 µM,> 50 µM,0.316 µM,> 50 µM,0.058 µM,0.671 µM,0.278 µM,> 50 µM,0.317 µM,> 50 µM,0.438 µM,> 50 µM,0.0849 µM,> 50 µM,0.257 µM,49 µM,3.22 µM,> 50 µM,0.147 µM,> 50 µM
C=CCn1c2c(c3ccccc3c1=O)C(=O)c1ccccc1-2,,> 100 µM,,> 100 µM,,> 100 µM,,> 100 µM,,> 100 µM,,> 100 µM,,> 100 µM,,> 100 µM,,> 100 µM,,> 100 µM
O=C(CCCCCCSc1nc(-c2ccccc2)cc(-c2ccc(Cl)cc2)n1)NO,1.59 µM,4.08 µM,1.24 µM,6.5 µM,1.4 µM,4.09 µM,1.37 µM,3.5 µM,3.65 µM,16.2 µM,2.14 µM,6.35 µM,0.416 µM,4.67 µM,0.64 µM,6.19 µM,1.75 µM,5.44 µM,1.95 µM,6.53 µM
COc1ccc(-c2nn3ncccc3c2-c2ccnc(Nc3ccc(Cl)c(C(F)(F)F)c3)n2)cc1,12.4 µM,> 25 µM,9.48 µM,> 25 µM,6.52 µM,> 25 µM,9.36 µM,> 25 µM,11.6 µM,> 25 µM,9.54 µM,> 25 µM,17.6 µM,> 25 µM,8.28 µM,> 25 µM,4.54 µM,19.8 µM,11.5 µM,> 25 µM
COc1cc(-c2nn(-c3ccc(NC(=O)c4ccc(Cl)c(Cl)c4)cc3)cc2-c2ccncc2)ccc1Cl,5.7 µM,> 100 µM,> 100 µM,> 100 µM,5.25 µM,> 100 µM,6.34 µM,> 100 µM,5.74 µM,> 100 µM,5.11 µM,> 100 µM,18.7 µM,> 100 µM,3.03 µM,14.1 µM,> 100 µM,> 100 µM,22.4 µM,> 100 µM
C=C1CC2(OC1=O)C(=O)N(CCCCCCCN1C(=O)C3(CC(=C)C(=O)O3)c3ccccc31)c1ccccc12 (configuration not stated),5.81 µM,12.4 µM,0.966 µM,2.29 µM,5.17 µM,13.1 µM,1.27 µM,4.82 µM,7.51 µM,17.2 µM,1.08 µM,2.72 µM,0.475 µM,3.58 µM,0.841 µM,3.33 µM,1.03 µM,3.64 µM,1.45 µM,5.6 µM
Cc1ncc(CN=Cc2ccc(Cl)cc2)c(N)n1,,> 100 µM,,> 100 µM,,> 100 µM,,> 100 µM,,> 100 µM,,> 100 µM,,> 100 µM,,> 100 µM,,> 100 µM,,> 100 µM
CCOC(=O)c1ccc(NC(=O)N2CC(C)OC(C)C2)cc1 (configuration not stated),> 100 µM,> 100 µM,> 100 µM,> 100 µM,> 100 µM,> 100 µM,> 100 µM,> 100 µM,> 100 µM,> 100 µM,> 100 µM,> 100 µM,> 100 µM,> 100 µM,> 100 µM,> 100 µM,> 100 µM,> 100 µM,> 100 µM,> 100 µM
CN(C)c1cccc2c(S(=O)(=O)N[C@H]3CC[C@H]4[C@@H]5CCc6cc(O)ccc6[C@H]5CC[C@]34C)cccc12,2.94 µM,10.4 µM,3.45 µM,16.2 µM,1.75 µM,4 µM,1.55 µM,3.46 µM,2.37 µM,5.48 µM,1.64 µM,3.43 µM,2.79 µM,> 100 µM,2.32 µM,7.8 µM,1.67 µM,7.64 µM,3.7 µM,18.3 µM
COc1cccc(C2CC(C)(N3CCCC3)Oc3cc4c(cc32)OCO4)c1O (configuration not stated),,77.4 µM,,99.2 µM,,> 100 µM,,> 90.1 µM,,55.8 µM,,84.9 µM,,31.6 µM,,> 81 µM,,> 100 µM,,> 83.8 µM
O=C(c1ccccc1)C(C(=O)c1ccccc1)C1(O)C(=O)c2ccccc2C1=O,,> 100 µM,,> 100 µM,,> 100 µM,,> 100 µM,,> 100 µM,,> 100 µM,,> 100 µM,,> 100 µM,,64.6 µM,,> 100 µM
CCN(CC)CCOc1nc2ccc(OC)cc2c2c1-c1ccc(OC)cc1C2=O,0.454 µM,1.72 µM,0.417 µM,1.89 µM,0.802 µM,2.17 µM,2.76 µM,7.65 µM,2.24 µM,4.05 µM,0.531 µM,2.06 µM,0.344 µM,1.69 µM,0.601 µM,2.24 µM,0.786 µM,5.36 µM,1.42 µM,3.1 µM
COc1cc(/C(C#N)=C/c2ccc3c(c2OC)OCO3)cc2c1OCO2,0.11 µM,14 µM,0.165 µM,42.3 µM,0.051 µM,0.785 µM,0.0531 µM,22.3 µM,0.0461 µM,6.46 µM,0.695 µM,> 100 µM,0.0244 µM,5.37 µM,0.146 µM,33.2 µM,0.211 µM,15.7 µM,0.0477 µM,7.81 µM
O=C(O)CSc1n[nH]c(-c2ccc(O)cc2)n1,,> 100 µM,,> 100 µM,,> 100 µM,,> 100 µM,,> 100 µM,,,,> 100 µM,,> 100 µM,,> 100 µM,,> 100 µM
CCOc1cc2ncc(C#N)c(Nc3ccc(OCc4cccc(F)c4)c(Cl)c3)c2cc1NC(=O)CC1CCSS1 (configuration not stated),> 6.88 µM,> 25 µM,0.578 µM,> 6.27 µM,> 25 µM,> 25 µM,> 25 µM,> 25 µM,0.99 µM,> 7.13 µM,> 6.3 µM,> 25 µM,0.68 µM,> 25 µM,> 25 µM,> 25 µM,> 11.5 µM,> 25 µM,0.45 µM,0.915 µM
COc1cc([C@H]2c3cc4c(cc3O[C@@]3(O)COC(=O)[C@@H]23)OCO4)cc(OC)c1OC,,> 100 µM,,> 100 µM,,> 100 µM,,> 100 µM,,> 100 µM,,> 100 µM,,> 100 µM,,> 100 µM,,> 100 µM,,> 100 µM
CN1CC[C@@H](c2c(O)cc(O)c3c(=O)cc(-c4ccccc4Cl)oc23)[C@@H](O)C1,,31 µM,,> 100 µM,0.0604 µM,0.181 µM and 1.13 µM,0.0571 µM and 0.0424 µM,0.133 µM and 0.182 µM and 0.102 µM,0.124 µM and 0.071 µM,0.215 µM and 0.209 µM and 0.101 µM,0.213 µM,13.2 µM,0.014 µM,0.0468 µM and 0.277 µM,0.0753 µM and 0.0274 µM,0.233 µM and 1.36 µM,0.104 µM,0.517 µM and 1.87 µM,0.0771 µM and 0.0278 µM,0.225 µM and 0.226 µM and 0.104 µM
O=C(Oc1ccc(Cl)cc1Cl)c1ccccc1Nc1ccnc(C(F)(F)F)c1,,,17.8 µM,> 100 µM,21.5 µM,37.3 µM,2.29 µM,7.06 µM,20.5 µM,> 100 µM,3.01 µM,7.63 µM,0.772 µM,> 100 µM,2.39 µM,6.29 µM,11.6 µM,43.4 µM,1.92 µM,4.93 µM
